Experimental findings from patent US10906880B2, “Kind of isothiazole oxime ether-containing strobilurin derivatives and its preparation methods and application” (priority 2016, dated 2021) are described below.

The structures appear in SMILES notation. Where “and” joins values, the source holds several entries; their conditions need not be identical. Equal values may be shown once. Read-outs that look alike come from different tables or passages of the source.

The subject of one series is Alternaria solani. Briefly: Fungicide activity, mycelial growth inhibition on PDA plate. The series is classed as cell-based. To be noted: Alternaria solani, read-out: Fungicidal activity inhibition, AS.
Series [1] deals with TMV. Briefly: Anti-TMV activity on tobacco, inactivation mode. The series is classed as in vivo, tobacco mosaic virus. Conditions: 100 μg/mL; for inhibition at 100 µg/mL: Tobacco mosaic virus, read-out: Anti-TMV activity inhibition, Inactivation effect.
The subject of the next series is Sclerotinia sclerotiorum. Description: Fungicide activity, mycelial growth inhibition on PDA plate. Conditions: Sclerotinia sclerotiorum, read-out: Fungicidal activity inhibition, SS. The series is classed as cell-based.
For series [2], the system named is Phytophthora infestans (Mont) de Bary. Briefly: microbe, parasite or virus in culture. The class given is cell-based. Conditions: for inhibition at 50 µg/mL: Phytophthora infestans, read-out: Fungicidal activity inhibition, PI, 50 μg/mL, P. infestans (Mont.) de Bary; for Fungicidal activity inhibition, PI: 50 μg/mL, P. infestans (Mont.) de Bary.
In series [3] the test system is TMV. Briefly: Anti-TMV activity on tobacco, protection mode. The series is classed as in vivo, tobacco mosaic virus. Conditions: 100 μg/mL; for inhibition at 100 µg/mL: Tobacco mosaic virus, read-out: Anti-TMV activity inhibition, Protection effect.
For the next series, the system named is Physalospora piricola. Briefly: Fungicide activity, mycelial growth inhibition on PDA plate. The series is classed as cell-based. To be noted: 50 μg/mL, P. piricola; read-out: Fungicidal activity inhibition, PP.
Another series relates to Gibberella zeae. Briefly: microbe, parasite or virus in culture. Conditions: for inhibition at 50 µg/mL: Fusarium graminearum, read-out: Fungicidal activity inhibition, GZ, 50 μg/mL, G. zeae; for Fungicidal activity inhibition, GZ: 50 μg/mL, G. zeae. The class given is cell-based.
The subject of series [4] is TMV. Description: Anti-TMV activity on tobacco, induction mode (systemic acquired resistance). To be noted: 100 μg/mL; for inhibition at 100 µg/mL: Tobacco mosaic virus, read-out: Anti-TMV activity inhibition, Induction effect. The series is classed as in vivo, tobacco mosaic virus.
The test system of another series is Cercospora arachidicola. Description: Fungicide activity, mycelial growth inhibition on PDA plate. The class given is cell-based. Conditions: Mycosphaerella arachidis, read-out: Fungicidal activity inhibition, CA.
The subject of a further series is Rhizoctonia cerealis. The series is described as above. The series is classed as cell-based. Conditions: Ceratobasidium cereale, read-out: Fungicidal activity inhibition, RC.
The subject of another series is Pellicularia sasakii. Described as above. Conditions: 50 μg/mL, P. sasakii; read-out: Fungicidal activity inhibition, PS. The class given is cell-based.
The subject of another series is Botrytis cinerea. Described as above. The class given is cell-based. To be noted: Botrytis cinerea, read-out: Fungicidal activity inhibition, BC.
Series [5] concerns TMV. Description: Anti-TMV activity on tobacco, curative mode. To be noted: 100 μg/mL, tobacco; for inhibition at 100 µg/mL: Tobacco mosaic virus, read-out: Anti-TMV activity inhibition, Curative effect. The series is classed as in vivo, tobacco mosaic virus.

As for `CO/N=C(/C(=O)N[C@@H](C)CSC)c1ccccc1CO/N=C(\N)c1snc(Cl)c1Cl` [CL04-25E], the inhibition at 50 µg/mL in the series on Alternaria solani (50 μg/mL, A. solani) was 9.09%; in the series with Sclerotinia sclerotiorum (50 μg/mL, S. sclerotiorum), 52.9%; in the series on Sclerotinia sclerotiorum, more than 40%; in series [2] it was 11.4%; in the series with Physalospora piricola, 10.9%; with Gibberella zeae, more than 30%. Besides, the inhibition at 50 µg/mL is 16.7% with Cercospora arachidicola (50 μg/mL, C. arachidicola); 54% in the series with Rhizoctonia cerealis (50 μg/mL, R. cerealis); more than 50% in the series with Rhizoctonia cerealis; 21.2% in the series on Pellicularia sasakii; 35.7% in the series on Botrytis cinerea (50 μg/mL, B. cinerea). In addition, the inhibition at 100 µg/mL stood at 0% with TMV [1], 26 ± 4.71% in the series on TMV [3], 16 ± 7.71% in the series with TMV [4] and 19.1 ± 6.56% in the series with TMV [5].

In general, melting point refers to the temperature of the solid-liquid transition. With `CNC(=O)/C(=N/OC)c1ccccc1CO/N=C(\N)c1snc(Cl)c1Cl` [CL04-25C], the melting point fell in the range of 122 to 124 °C. Also, the inhibition at 50 µg/mL in the series on Alternaria solani (50 μg/mL, A. solani) was determined as 34.4%. Besides, the inhibition at 50 µg/mL in the series on Alternaria solani was more than 30%. Besides, the inhibition at 100 µg/mL with TMV [1] was found to be 0%. Also, the inhibition at 50 µg/mL in the series on Sclerotinia sclerotiorum (50 μg/mL, S. sclerotiorum) amounted to 66.7%. Moreover, in the series with Sclerotinia sclerotiorum, the inhibition at 50 µg/mL is more than 40%. In addition, the “Fungicidal activity inhibition, PI” value in series [2] is reported as 100%. The inhibition at 100 µg/mL in the series on TMV [3] was more than 40%. Further, in the series with Physalospora piricola, the inhibition at 50 µg/mL came to 40.4%. Besides, the “Fungicidal activity inhibition, GZ” value with Gibberella zeae worked out at 100%. Moreover, in the series with Cercospora arachidicola (50 μg/mL, C. arachidicola), the inhibition at 50 µg/mL was determined as 44%. Further, the inhibition at 50 µg/mL in the series with Cercospora arachidicola was more than 30%. Further, the inhibition at 50 µg/mL in the series on Rhizoctonia cerealis (50 μg/mL, R. cerealis) worked out at 100%. The inhibition at 50 µg/mL in the series on Pellicularia sasakii turned out to be 83.8%. The inhibition at 50 µg/mL in the series with Botrytis cinerea (50 μg/mL, B. cinerea) turned out to be 57.9%. Besides, the inhibition at 50 µg/mL in the series on Botrytis cinerea was more than 45%. Moreover, the inhibition at 100 µg/mL in the series on TMV [5] amounted to 14.7 ± 4.84%.

As to `CO/N=C(/C(=O)N[C@@H](C)CSC)c1ccccc1CO/N=C(\C)c1snc(Cl)c1Cl` [CL04-22F], the melting point was 35 to 37 °C. Besides, the inhibition at 50 µg/mL in the series on Alternaria solani (50 μg/mL, A. solani) was 16.4%. Besides, the inhibition at 100 µg/mL in the series with TMV [1] stood at 0%. In addition, the inhibition at 50 µg/mL in the series with Sclerotinia sclerotiorum (50 μg/mL, S. sclerotiorum) was found to be 52.9%. Moreover, the inhibition at 50 µg/mL in the series on Sclerotinia sclerotiorum is more than 40%. The inhibition at 50 µg/mL in series [2] was 17.1%. Further, the inhibition at 100 µg/mL in the series on TMV [3] came out at 23.8 ± 3.42%. The inhibition at 50 µg/mL in the series with Physalospora piricola was found to be 32.8%. In the series with Gibberella zeae, the inhibition at 50 µg/mL was more than 30%. In addition, in the series on Cercospora arachidicola (50 μg/mL, C. arachidicola), the inhibition at 50 µg/mL was 12.5%. For the same compound, the inhibition at 50 µg/mL in the series with Rhizoctonia cerealis (50 μg/mL, R. cerealis) stood at 76%. For the same compound, the inhibition at 50 µg/mL in the series on Rhizoctonia cerealis was more than 50%. Further, the inhibition at 50 µg/mL in the series on Pellicularia sasakii amounted to 15.2%. For the same compound, the inhibition at 50 µg/mL in the series with Botrytis cinerea (50 μg/mL, B. cinerea) turned out to be 45.5%. Also, in the series with Botrytis cinerea, the inhibition at 50 µg/mL was more than 45%. In addition, in the series with TMV [5], the inhibition at 100 µg/mL stood at 1.52 ± 0.62%.

The compound `CNC(=O)/C(=N/OC)c1ccccc1CO/N=C(C)/C=C/c1snc(Cl)c1Cl` [CL04-32D] showed a melting point of 137 to 139 °C. The inhibition at 50 µg/mL in the series with Alternaria solani (50 μg/mL, A. solani) stood at 54.1%. Moreover, the inhibition at 50 µg/mL in the series with Alternaria solani was more than 30%. Moreover, in the series on Sclerotinia sclerotiorum (50 μg/mL, S. sclerotiorum), the inhibition at 50 µg/mL was found to be 73.3%. Besides, the inhibition at 50 µg/mL in the series with Sclerotinia sclerotiorum was more than 40%. Besides, in series [2], the “Fungicidal activity inhibition, PI” value was 100%. Besides, in the series with TMV [3], the inhibition at 100 µg/mL turned out to be 39.1 ± 2.73%. For the same compound, in the series with Physalospora piricola, the inhibition at 50 µg/mL was 64.9%. Further, the “Fungicidal activity inhibition, GZ” value in the series with Gibberella zeae is reported as 100%. For the same compound, in the series on TMV [4], the inhibition at 100 µg/mL was more than 30%. Also, the inhibition at 50 µg/mL in the series on Cercospora arachidicola (50 μg/mL, C. arachidicola) was 84%. Also, the inhibition at 50 µg/mL in the series with Rhizoctonia cerealis (50 μg/mL, R. cerealis) was determined as 85.4%. Further, the inhibition at 50 µg/mL in the series with Rhizoctonia cerealis was more than 50%. In the series on Pellicularia sasakii, the inhibition at 50 µg/mL turned out to be 89.2%. Besides, the inhibition at 50 µg/mL in the series with Botrytis cinerea (50 μg/mL, B. cinerea) was 84.2%. Moreover, the inhibition at 50 µg/mL in the series on Botrytis cinerea is more than 45%. For the same compound, the inhibition at 100 µg/mL with TMV [5] came out at 1.52 ± 0.62%.

As to `CNC(=O)/C(=N/OC)c1cc(C)c(C)cc1CO/N=C(\C)c1cc(Cl)ns1` [CL04-00, reference compound], in the series with TMV [1], the “Anti-TMV activity inhibition, Inactivation effect” value is listed as 19.68 ± 1.10% and the inhibition at 100 µg/mL was determined as 20.7 ± 2.1%. For the same compound, in the series with TMV [3], the “Anti-TMV activity inhibition, Protection effect” value was 25.30 ± 1.47% and the inhibition at 100 µg/mL is 26.3 ± 2.47%. For the same compound, in the series on Gibberella zeae, the “Fungicidal activity inhibition, GZ” value was 29.63% and 50.00%. Besides, in the series with TMV [4], the “Anti-TMV activity inhibition, Induction effect” value turned out to be 19.34 ± 1.14% and the inhibition at 100 µg/mL came out at 20.3 ± 2.16%. Moreover, in the series on TMV [5], the “Anti-TMV activity inhibition, Curative effect” value was found to be 26.39 ± 1.22% and the inhibition at 100 µg/mL amounted to 27.3 ± 1.24%.
